Data on 15 compounds can be found in patent US20080004302A1, “Novel Compounds” (ASTRAZENECA AB, priority 2006, published 2008).

Read-outs that look alike come from different tables or passages of the source. A value given as a limit tells only on which side of the number the result lay.

In data set [1] the target is T1, human cytochrome P450 (CYP) 3A4 (Homo sapiens, UniProt P08684).
T1 construct: made in house; host or cells: yeast (microsomal fraction)
Briefly: Cytochrome P450 inhibition assay, 3A4. The following applies: test concentrations 0.1-10 μM. Format: in vitro ADME.
Experimental: (§1) The inhibitory potential (IC50) of test compounds against 5 human cytochrome P450 (CYP) isoforms (IA2, 2C9, 2C19, 3A4 and 2D6) was assessed using an automated fluorescent end point in vitro assay modified from Crespi (Crespi and Stresser, 2000). Microsomal subcellular fractions prepared from Yeast cell lines expressing each human CYP isoform were used as an enzyme source in this assay. The activity of the 5 major human CYPs was determined from the biotransformation of a number of coumarin substrates to fluorescent metabolites, in the presence of NADPH. […] Stock solutions of each CYP, with its respective substrate, were prepared in phosphate buffer pH7.4 (see Table 1) and 178 μl was added to the well of a black solid, flat bottom, 300 μl 96 well microtitre plate (Coming Costar). […] After pre-incubating at 37° C. for 5 min the reactions were started with addition of NADPH (20 μl, concentration shown in Table 1). The final solvent content in each incubation was <=2% (1% from the test compound and a maximum of 1% from the substrate). The appropriate solvent controls and substrate blanks were included in each experiment to assess control activity and identify any inherent fluorescence due to the test compounds. In addition, known inhibitors of each CYP were included as positive controls (see Table 3 for inhibitor concentrations and expected IC50 ranges). The reactions were stopped at defined timepoints (see Table 1) by quenching with 100 μl of solvent (acetonitrile:0.5M Tris buffer 80:20 v/v). The plates were read on a fluorimeter (Spectrafluor Plus) at the appropriate excitation and emission wavelengths (listed in Table 2) and the percent activity, corrected for control, was plotted against the test compound concentration.

In data set [2] the target is T2, human cytochrome P450 (CYP) 1A2 (Homo sapiens, UniProt P05177).
T2 sequence (P05177 1-516): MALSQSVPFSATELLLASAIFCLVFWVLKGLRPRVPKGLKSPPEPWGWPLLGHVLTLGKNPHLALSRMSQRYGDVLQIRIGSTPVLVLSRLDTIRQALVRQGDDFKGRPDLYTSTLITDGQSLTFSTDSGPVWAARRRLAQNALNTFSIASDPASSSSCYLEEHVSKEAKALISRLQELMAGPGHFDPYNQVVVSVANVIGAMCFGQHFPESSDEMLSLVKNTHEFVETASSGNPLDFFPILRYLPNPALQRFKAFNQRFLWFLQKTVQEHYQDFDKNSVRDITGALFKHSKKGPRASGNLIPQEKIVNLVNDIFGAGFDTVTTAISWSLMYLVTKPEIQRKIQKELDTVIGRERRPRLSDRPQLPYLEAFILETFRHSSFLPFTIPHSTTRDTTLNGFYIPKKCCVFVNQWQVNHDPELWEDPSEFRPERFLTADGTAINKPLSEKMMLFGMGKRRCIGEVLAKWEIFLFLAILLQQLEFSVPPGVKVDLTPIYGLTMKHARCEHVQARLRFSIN
Experimental: as §1

Data set [3] deals with human cytochrome P450 (CYP) 2C9 (Homo sapiens, UniProt P11712).
human cytochrome P450 (CYP) 2C9, sequence (P11712 whole entry): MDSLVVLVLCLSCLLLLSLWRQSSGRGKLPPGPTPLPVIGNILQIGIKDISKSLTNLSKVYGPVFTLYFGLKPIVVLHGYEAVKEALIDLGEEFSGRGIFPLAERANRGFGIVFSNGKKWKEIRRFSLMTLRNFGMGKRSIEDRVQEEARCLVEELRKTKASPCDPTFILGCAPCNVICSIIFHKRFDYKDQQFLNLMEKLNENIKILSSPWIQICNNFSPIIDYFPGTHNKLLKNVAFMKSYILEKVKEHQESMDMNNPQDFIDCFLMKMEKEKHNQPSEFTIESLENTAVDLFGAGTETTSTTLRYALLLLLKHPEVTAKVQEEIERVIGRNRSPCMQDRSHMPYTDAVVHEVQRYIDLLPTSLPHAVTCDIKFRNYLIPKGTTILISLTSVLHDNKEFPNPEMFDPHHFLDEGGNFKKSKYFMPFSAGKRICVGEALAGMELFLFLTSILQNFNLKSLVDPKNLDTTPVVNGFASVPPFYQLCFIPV
Experimental: as §1
Data set [4] has as its target human cytochrome P450 (CYP) 2C19 (Homo sapiens, UniProt P33261).
Experimental: as §1
Data set [5] has as its target CYP2D6 (Homo sapiens, UniProt P10635). In words: in vitro. The following applies: pH 7.4, probe coumarin substrate (not named).
Experimental: as §1
Data set [6] addresses T3, FGFR kinase domain (Homo sapiens, UniProt P11362, C488A/C584S).
T3 construct: FGFR kinase domain (amino acids 458-765, C488A, C584S) N-terminally fused to a His6-tag; made in house
In words: Kinase assay (ELISA) for inhibition of FGFR activity. The class given is biochemical. Here is the method:
To determine inhibition of FGFR activity, kinase assays were conducted using ELISA (Enzyme-Linked Immunosorbent Assay) technology.
Kinase activity assays were performed in 384-well polypropylene plates (Matrix, 4311) with a total volume of 40 μl in each well. Each well was coated with 2 μg of polyEAY substrate (Sigma, P3899) at 4° C. overnight. The plates were then washed once with 100 μl PBS and once with 100 μl 50 mM HEPES (pH 7.4) prior to the addition of the kinase assay reagents. […] Various concentrations of test compounds were each added in 5% (v/v) DMSO to yield a final assay DMSO concentration of 1.25% (v/v). The kinase reactions were incubated at room temperature for 45 minutes and stopped by washing the plate three times with 100 μl PBS plus 0.05% Tween. […] Following this, the plates were then washed repeatedly with 100 μl PBS plus 0.05% Tween to remove all traces of the antibody solution. 40 μl of 50 μg/ml 3,3′,5,5′-Tetramethylbenzidine (Sigma, T2885), 0.05M phosphate-citrate buffer, containing 0.03% sodium perborate was added to each well and the plates incubated at room temperature for twelve minutes. The colour reaction was stopped by the addition of 20 μl 2M H2SO4 and the plates read at 450 nm on a Spectrafluor Plus (Tecan).

Data set [7] concerns the target T4, human IGF1R (Homo sapiens, UniProt P08069).
T4 construct: expressed in transfected cells; host or cells: R+ cells (R- mouse fibroblasts transfected with human IGF1R)
Briefly: Inhibition of insulin-like growth factor-1 receptor phosphorylation in R+ cells. The class given is cell-based. The following applies: 30 nM IGF1, read-out: IGF cell class.

For data set [8], the system named is Erk phosphorylation. Briefly: Growth factor (bFGF) stimulated Erk phosphorylation in NIH 3T3 cells. The conditions noted are these: Mus musculus.
Text: These and other assays were used to evaluate the ability of a test compound to inhibit growth factor stimulated cellular signalling in mammalian cell lines. This was achieved by measuring the amount of receptor tyrosine kinase regulated Erk phosphorylation within a cell following compound treatment.
NIH 3T3 (ECACC, 93061524) cells were routinely passaged in DMEM (Gibco BRL, 41966) plus 10% foetal calf serum (FCS), 1% L-glutamine (Gibco BRL, 25030) to a confluence not greater than 80%. To undertake the assay, NIH 3T3's were seeded at 1×10^4 cells/well in DMEM plus 10% foetal calf serum, 1% L-glutamine in 96 well plates (Costar, 3904) and incubated at 37° C. (+5% CO2) in a humidified incubator. Once the cells had fully adhered (typically following 4-5 hours incubation) the media was removed from each well and the cells gently washed with 100μl warm serum free media. 90μl of serum free DMEM plus 1% L-glutamine was then added to each well and the plates were returned to a humidified 37° C. (+5% CO2) incubator. The following day, the plates were dosed with 10[l compound (diluted from 10 mM stock in DMSO using serum free DMEM) and the plates were returned to a humidified 37° C. (+5% CO2) incubator for one hour. NIH 3T3 cells were then stimulated with a final concentration of 3 ng/ml bFGF (Sigma, F029 1) for 20 minutes at 37° C. Following stimulation the cells were fixed by adding formaldehyde (4% v/v final concentration) and incubating at room temperature for 20 minutes. The fixative solution was then removed and the wells were washed twice with 100μl phosphate buffered saline (PBS/A) before permeabilising the cells by the addition of 50 μl/well 0.1% triton/PBS/A for 10 minutes at room temperature. The permeabilisation solution was then removed and the cells washed twice more with 100 μl/well PBS/A before the addition of 50 μl/well anti-phospho p44/42 (Cell Signalling Technology, 9106), diluted 1/500 with PBS/A plus 10% FCS. The anti-phospho p44/42 antibody recognises Erk phosphorylated at threonine 202 and tyrosine 204. […] Finally, the plates were washed three times with 100 μl/well PBS/A, leaving the final wash in the wells before sealing the plates. The plates were read at 350 nm and 488 nm using an Arrayscan (Cellomics).
The target of data set [9] is T5, FGFR1 IIIc (Homo sapiens, UniProt P11362).
T5 construct: host or cells: Cos-1
T5 sequence (P11362 22-822): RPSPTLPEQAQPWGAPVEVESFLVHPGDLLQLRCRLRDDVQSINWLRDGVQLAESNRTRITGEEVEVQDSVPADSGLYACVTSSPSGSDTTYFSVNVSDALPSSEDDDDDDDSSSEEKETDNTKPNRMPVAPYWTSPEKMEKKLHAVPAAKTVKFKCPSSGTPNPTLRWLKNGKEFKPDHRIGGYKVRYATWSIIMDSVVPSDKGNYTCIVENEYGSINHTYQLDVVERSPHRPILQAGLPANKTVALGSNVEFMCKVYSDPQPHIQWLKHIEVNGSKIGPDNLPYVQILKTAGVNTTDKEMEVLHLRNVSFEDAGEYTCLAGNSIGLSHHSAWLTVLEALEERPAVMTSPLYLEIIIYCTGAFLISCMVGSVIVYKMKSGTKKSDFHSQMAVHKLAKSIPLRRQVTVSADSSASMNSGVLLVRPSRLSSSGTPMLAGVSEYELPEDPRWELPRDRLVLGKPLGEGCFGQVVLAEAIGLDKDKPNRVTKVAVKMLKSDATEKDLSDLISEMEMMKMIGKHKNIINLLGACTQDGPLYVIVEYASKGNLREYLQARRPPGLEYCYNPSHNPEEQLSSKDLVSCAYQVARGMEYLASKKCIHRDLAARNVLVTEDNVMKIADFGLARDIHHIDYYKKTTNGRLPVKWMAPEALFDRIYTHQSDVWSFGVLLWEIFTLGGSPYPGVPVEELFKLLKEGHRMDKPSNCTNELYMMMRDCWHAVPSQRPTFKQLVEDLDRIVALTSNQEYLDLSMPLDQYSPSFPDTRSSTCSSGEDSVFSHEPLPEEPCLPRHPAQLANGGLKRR
Briefly: Cell based inhibition of transiently expressed FGFR1 IIIc phosphorylation (Cos-1 cells). The following applies: Cos-1 cells, phospho-FGFR1; upper bound of bin; read-out: IC50.

Data set [10] concerns the target T5, FGFR1 IIIc. In words: Cell based inhibition of transiently expressed FGFR1 IIIc phosphorylation via use of ECHO technology (Cos-1 cells). The conditions noted are these: Cos-1 cells, phospho-FGFR1, ECHO dosing; upper bound of bin; read-out: IC50.
For data set [11], the target named is T6, CYP3A4 (Homo sapiens, UniProt P08684).
T6 construct: made in house; host or cells: yeast (microsomal fraction)
T6 sequence (P08684 whole entry): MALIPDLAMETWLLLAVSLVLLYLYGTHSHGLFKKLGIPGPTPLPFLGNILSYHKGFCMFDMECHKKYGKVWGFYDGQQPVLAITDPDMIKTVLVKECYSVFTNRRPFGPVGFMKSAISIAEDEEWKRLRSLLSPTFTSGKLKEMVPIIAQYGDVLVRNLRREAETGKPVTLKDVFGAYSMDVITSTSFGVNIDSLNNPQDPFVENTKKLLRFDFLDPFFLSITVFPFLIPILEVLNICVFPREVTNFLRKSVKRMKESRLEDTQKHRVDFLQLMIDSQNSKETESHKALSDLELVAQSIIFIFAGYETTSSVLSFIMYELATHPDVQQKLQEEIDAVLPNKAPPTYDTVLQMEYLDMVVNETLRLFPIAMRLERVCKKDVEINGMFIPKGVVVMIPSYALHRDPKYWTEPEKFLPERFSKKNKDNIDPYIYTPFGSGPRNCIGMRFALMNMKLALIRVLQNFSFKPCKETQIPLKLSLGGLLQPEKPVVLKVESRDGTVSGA
Briefly: Cytochrome P450 inhibition assay, 3A4. The class given is in vitro ADME. The following applies: human, pH 7.4, probe coumarin substrate (not named); test concentrations 0.1-10 μM.
Experimental: as §1

Data set [12] concerns the target FGFR1 kinase (Homo sapiens, UniProt P11362). Briefly: Kinase assay (using Caliper technology). Format: biochemical. The following applies: FGFR1 kinase, Caliper; upper bound of bin; read-out: IC50. An outline of the steps:
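Human FGFR1 kinase activity measured with a 13-mer fluorescently tagged FGFR1-specific peptide substrate; compounds serially diluted in 5% (v/v) DMSO. Reactions ran 1.5 h at room temperature, stopped with EDTA-containing HEPES pH 7.5 buffer. Phosphorylated and unphosphorylated peptide separated by microfluidic mobility shift.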

[13] abbreviates: comparative testing, read-out: Fgf Ic50.
Where [14] appears, read: FGFR inhibition tests, ELISA kinase assay, read-out: Activity class.
The mark [15] stands for this setting: NIH3T3, NIH 3T3 cells, 3 ng/ml bFGF.

T3 sequence (P11362 458-765 C488A/C584S): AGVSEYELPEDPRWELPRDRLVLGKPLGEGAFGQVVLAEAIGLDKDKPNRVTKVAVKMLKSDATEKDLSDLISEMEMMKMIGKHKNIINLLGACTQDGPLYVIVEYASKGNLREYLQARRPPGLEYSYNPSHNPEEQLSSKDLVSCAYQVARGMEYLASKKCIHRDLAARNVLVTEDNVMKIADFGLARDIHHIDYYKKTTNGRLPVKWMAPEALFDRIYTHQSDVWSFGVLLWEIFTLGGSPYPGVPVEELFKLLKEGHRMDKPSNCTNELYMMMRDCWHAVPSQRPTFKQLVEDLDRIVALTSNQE
CYP2D6, sequence (P10635 whole entry, the tested form may be a part): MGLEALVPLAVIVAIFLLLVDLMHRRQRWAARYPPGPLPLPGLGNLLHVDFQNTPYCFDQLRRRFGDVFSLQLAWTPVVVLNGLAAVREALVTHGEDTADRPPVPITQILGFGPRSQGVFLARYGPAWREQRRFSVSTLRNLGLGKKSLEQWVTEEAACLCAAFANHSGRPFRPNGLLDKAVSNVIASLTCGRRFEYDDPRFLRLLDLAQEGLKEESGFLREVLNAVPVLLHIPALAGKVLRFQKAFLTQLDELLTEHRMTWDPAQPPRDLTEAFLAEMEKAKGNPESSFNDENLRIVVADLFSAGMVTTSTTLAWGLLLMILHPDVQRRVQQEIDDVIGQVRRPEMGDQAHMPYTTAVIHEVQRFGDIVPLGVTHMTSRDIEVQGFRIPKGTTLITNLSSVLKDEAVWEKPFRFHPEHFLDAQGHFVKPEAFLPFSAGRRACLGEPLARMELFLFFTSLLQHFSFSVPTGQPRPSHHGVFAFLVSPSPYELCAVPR
T4 sequence (P08069 31-1367): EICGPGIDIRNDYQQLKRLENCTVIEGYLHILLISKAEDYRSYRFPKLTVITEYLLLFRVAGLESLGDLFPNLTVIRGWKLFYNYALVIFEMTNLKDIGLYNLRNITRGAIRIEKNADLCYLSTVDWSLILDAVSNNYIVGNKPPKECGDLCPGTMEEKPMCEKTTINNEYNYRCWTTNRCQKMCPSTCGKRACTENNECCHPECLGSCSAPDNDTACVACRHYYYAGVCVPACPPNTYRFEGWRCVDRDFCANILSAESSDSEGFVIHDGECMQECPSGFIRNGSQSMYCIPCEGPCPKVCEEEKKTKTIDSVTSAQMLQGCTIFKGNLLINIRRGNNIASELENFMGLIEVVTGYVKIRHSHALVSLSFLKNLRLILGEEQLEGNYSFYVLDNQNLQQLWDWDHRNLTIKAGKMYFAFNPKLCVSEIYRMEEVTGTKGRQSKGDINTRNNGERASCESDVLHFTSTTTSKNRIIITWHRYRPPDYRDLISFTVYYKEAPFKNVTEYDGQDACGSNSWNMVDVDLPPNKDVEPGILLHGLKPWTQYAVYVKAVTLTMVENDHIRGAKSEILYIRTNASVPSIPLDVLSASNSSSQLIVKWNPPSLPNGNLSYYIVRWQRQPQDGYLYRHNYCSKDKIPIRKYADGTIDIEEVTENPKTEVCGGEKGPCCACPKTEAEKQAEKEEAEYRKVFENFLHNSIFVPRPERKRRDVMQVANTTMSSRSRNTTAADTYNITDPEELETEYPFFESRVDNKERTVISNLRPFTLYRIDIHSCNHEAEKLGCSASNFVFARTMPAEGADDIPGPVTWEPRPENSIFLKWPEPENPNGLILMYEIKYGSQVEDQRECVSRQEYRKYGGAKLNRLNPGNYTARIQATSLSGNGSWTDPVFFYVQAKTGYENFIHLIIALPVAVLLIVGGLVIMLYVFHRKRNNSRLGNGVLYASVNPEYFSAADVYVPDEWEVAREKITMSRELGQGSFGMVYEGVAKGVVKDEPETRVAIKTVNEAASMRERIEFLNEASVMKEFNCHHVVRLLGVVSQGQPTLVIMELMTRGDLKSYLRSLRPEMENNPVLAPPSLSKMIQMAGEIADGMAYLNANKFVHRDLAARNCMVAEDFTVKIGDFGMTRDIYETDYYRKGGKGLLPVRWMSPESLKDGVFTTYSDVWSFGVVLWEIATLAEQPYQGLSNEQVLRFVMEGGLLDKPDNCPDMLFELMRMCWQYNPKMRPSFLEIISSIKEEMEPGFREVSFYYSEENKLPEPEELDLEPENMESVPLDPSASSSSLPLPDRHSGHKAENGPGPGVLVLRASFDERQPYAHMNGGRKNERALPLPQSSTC
human cytochrome P450 (CYP) 2C19, sequence (P33261 whole entry): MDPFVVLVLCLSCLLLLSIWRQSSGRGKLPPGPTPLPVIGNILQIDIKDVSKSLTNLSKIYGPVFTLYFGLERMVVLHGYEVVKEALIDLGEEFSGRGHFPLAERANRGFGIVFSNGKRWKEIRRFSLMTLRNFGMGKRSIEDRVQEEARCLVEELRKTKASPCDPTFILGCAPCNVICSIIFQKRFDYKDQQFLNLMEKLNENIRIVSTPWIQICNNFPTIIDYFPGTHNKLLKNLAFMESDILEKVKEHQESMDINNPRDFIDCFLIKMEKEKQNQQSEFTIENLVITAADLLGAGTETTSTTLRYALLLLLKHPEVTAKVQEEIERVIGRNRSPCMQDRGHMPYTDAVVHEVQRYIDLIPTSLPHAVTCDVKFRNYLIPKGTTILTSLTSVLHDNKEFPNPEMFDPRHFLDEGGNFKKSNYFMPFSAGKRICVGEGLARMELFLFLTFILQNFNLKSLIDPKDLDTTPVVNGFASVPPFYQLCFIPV
FGFR1 kinase, sequence (P11362 22-822): as the sequence (P11362 22-822) above
T1 sequence (P08684 whole entry): as the sequence (P08684 whole entry) above

On to `Cc1cc(CNc2ncc(Cl)c(Nc3cc(C)[nH]n3)n2)on1` [(b), 5-chloro-N-[(3-methylisoxazol-5-yl)methyl]-N′-(5-methyl-2H-pyrazol-3-yl)pyrimidine-2,4-diamine], for which the IC50 was 4400 nM in data set [1]; 460 nM in data set [2]; 1120 nM in [3]; above 10000 nM in data set [4]; above 10000 nM in data set [5].
Consider `Cc1cc(Nc2nc(NCc3cc(C)no3)ncc2Br)[nH]n1` [Comparative Example (a), 5-bromo-N-[(3-methylisoxazol-5-yl)methyl]-N′-(5-methyl-2H-pyrazol-3-yl)pyrimidine-2,4-diamine], for which the IC50 in data set [6] (setting [13]) is 140 nM; in data set [1], 3310 nM; in data set [2], 790 nM; in data set [3], above 10000 nM; in [4], above 10000 nM; in [5], above 10000 nM.
For `CCCc1cc(Nc2nc(NCc3cc(C)no3)ncc2Br)n[nH]1` [Comparative Example (d), 5-bromo-N-[(3-methylisoxazol-5-yl)methyl]-N′-(5-propyl-2H-pyrazol-3-yl)pyrimidine-2,4-diamine], the IC50 was 90 nM in data set [6] (setting [13]); 370 nM in [1]; at most 100 nM in [2]; 3080 nM in data set [3]; 2880 nM in data set [4]; above 10000 nM in data set [5].
Take `Cc1cc(CNc2nccc(Nc3cc(C)[nH]n3)n2)on1` [Example 1, N-[(3-methylisoxazol-5-yl)methyl]-N′-(5-methyl-2H-pyrazol-3-yl)pyrimidine-2,4-diamine]: the IC50 is above 10000 nM in data set [7]; 5700 nM in [1]; above 10000 nM in data set [2]; above 10000 nM in [3]; above 10000 nM in data set [4]; above 10000 nM in data set [5]. The IC50 in data set [8] (NIH3T3) is below 1000 nM.
`Cc1cc(Nc2ccnc(NCc3cc(C4CC4)no3)n2)n[nH]1` [Example 3, N-[(3-cyclopropylisoxazol-5-yl)methyl]-N ′-(5-methyl-2H-pyrazol-3-yl)pyrimidine-2,4-diamine]: the IC50 was below 100 nM in data set [6] (setting [14]); below 1000 nM in data set [9]; below 1000 nM in data set [10]; 1000 to 10000 nM in [7]; below 200 nM in [8] (setting [15]).
In the case of `Cc1cc(CNc2nccc(Nc3cc(C4CC4)[nH]n3)n2)on1` [Example 9, N′-(5-cyclopropyl-2H-pyrazol-3-yl)-N-[(3-methyl-1,2-oxazol-5-yl)methyl]pyrimidine-2,4-diamine], the IC50 is below 100 nM in [6] (setting [14]); 40 nM in [6] (setting [13]); 1000 to 10000 nM in data set [7]; above 10000 nM in data set [11]; 2190 nM in [2]; above 10000 nM in data set [3]. Also, the IC50 in [4] and in data set [5] was above 10000 nM in each case.
Take `COc1ccc(CCc2cc(Nc3ccnc(NCc4cc(C)no4)n3)n[nH]2)cc1` [Example 24, N′-[5-[2-(4-methoxyphenyl)ethyl]-2H-pyrazol-3-yl]-N-[(3-methyl-1,2-oxazol-5-yl)methyl]pyrimidine-2,4-diamine]: the IC50 in [6] (setting [14]) is 100 to 1000 nM; in data set [12], below 1000 nM; in data set [9], below 1000 nM; in [7] it was above 10000 nM.
Consider `COc1cccc(CCc2cc(Nc3ccnc(NCc4cc(C)no4)n3)n[nH]2)c1` [Example 27, N′-[5-[2-(3-methoxyphenyl)ethyl]-2H-pyrazol-3-yl]-N-[(3-methyl-1,2-oxazol-5-yl)methyl]pyrimidine-2,4-diamine], for which the IC50 was below 100 nM in data set [6] (setting [14]), below 200 nM in data set [12], below 200 nM in data set [9] and above 10000 nM in data set [7].
Regarding `COc1cccc(CCc2cc(Nc3ccnc(NCc4cc(C5CC5)no4)n3)n[nH]2)c1` [Example 28, N-[(3-cyclopropyl-1,2-oxazol-5-yl)methyl]-N′-[5-[2-(3-methoxyphenyl)ethyl]-2H-pyrazol-3-yl]pyrimidine-2,4-diamine], the IC50 in data set [6] (setting [14]) was 100 to 1000 nM; in data set [12] it was below 200 nM; in [9] it was below 200 nM; in data set [10] it was below 200 nM.
Regarding `COc1cccc(CCc2cc(Nc3ccnc(NCc4cc(C(N)=O)no4)n3)[nH]n2)c1` [Example 29, 5-[[[4-[[5-[2-(3-methoxyphenyl)ethyl]-2H-pyrazol-3-yl]amino]pyrimidin-2-yl]amino]methyl]-1,2-oxazole-3-carboxamide], the IC50 in data set [6] (setting [14]) is below 100 nM; in data set [12], below 200 nM; in [9] it was below 10000 nM; in data set [7], above 10000 nM.
For `COc1cccc(CCc2cc(Nc3ccnc(NCc4cc(-c5ncccn5)no4)n3)[nH]n2)c1` [Example 33, N′-[5-[2-(3-methoxyphenyl)ethyl]-2H-pyrazol-3-yl]-N-[(3-pyrimidin-2-yl1,2-oxazol-5-yl)methyl]pyrimidine-2,4-diamine], the IC50 was 92 nM in [6] (stated after the ELISA results table, read-out: IC50); below 200 nM in data set [12]; above 10000 nM in data set [7]; 518 nM in data set [8] (setting [15]); below 1000 nM in [8] (NIH3T3, NIH 3T3 cells, 3 ng/ml bFGF, upper bound of bin).
Turning to `Cc1cc(CNc2nccc(Nc3cc(OC(C)C)[nH]n3)n2)on1` [Example 66, N-[(3-methyl-1,2-oxazol-5-yl)methyl]-N′-(5-propan-2-yloxy-2H-pyrazol-3-yl)pyrimidine-2,4-diamine], the IC50 in [6] (setting [14]) was below 100 nM; in data set [12], below 200 nM; in [9], below 1000 nM; in data set [10], below 1000 nM; in [7], above 10000 nM; in [8] (setting [15]), below 200 nM.
For the compound `CC(C)Oc1cc(Nc2ccnc(NCc3cc(C4CC4)no3)n2)n[nH]1` [Example 67, N-[(3-cyclopropyl-1,2-oxazol-5-yl)methyl]-N′-(5-propan-2-yloxy-2H-pyrazol-3-yl)pyrimidine-2,4-diamine], the IC50 in [6] (setting [14]) is below 100 nM; in [12] it was below 200 nM; in data set [9], below 200 nM; in data set [10] it was below 200 nM; in [7] it was 1000 to 10000 nM; in data set [8] (setting [15]), below 200 nM.
As to `COc1cc(COc2cc(Nc3ccnc(NCc4cc(C)no4)n3)n[nH]2)cc(OC)c1` [Example 73, N′-[5-[(3,5-dimethoxyphenyl)methoxy]-1H-pyrazol-3-yl]-N-[(3-methyl-1,2-oxazol-5-yl)methyl]pyrimidine-2,4-diamine], the IC50 in data set [6] (setting [14]) was below 100 nM; in data set [12], below 200 nM; in data set [9], below 200 nM; in data set [10], below 200 nM; in data set [7], 1000 to 10000 nM; in [8] (setting [15]), below 200 nM.
As for `COc1ccc2[nH]c([S+]([O-])Cc3ncc(C)c(OC)c3C)nc2c1` (centres unmarked) [Omeprazole], the IC50 in [4] was in the range of 1500 to 4600 nM.
